Experimental data taken from paper PMC3911823 (The FEBS journal, 2011).

Target: T1, P450 2B4 E474D (Oryctolagus cuniculus, UniProt P00178, E474D)
T1 sequence (P00178 with tags, fused parts or gaps E474D limits assumed): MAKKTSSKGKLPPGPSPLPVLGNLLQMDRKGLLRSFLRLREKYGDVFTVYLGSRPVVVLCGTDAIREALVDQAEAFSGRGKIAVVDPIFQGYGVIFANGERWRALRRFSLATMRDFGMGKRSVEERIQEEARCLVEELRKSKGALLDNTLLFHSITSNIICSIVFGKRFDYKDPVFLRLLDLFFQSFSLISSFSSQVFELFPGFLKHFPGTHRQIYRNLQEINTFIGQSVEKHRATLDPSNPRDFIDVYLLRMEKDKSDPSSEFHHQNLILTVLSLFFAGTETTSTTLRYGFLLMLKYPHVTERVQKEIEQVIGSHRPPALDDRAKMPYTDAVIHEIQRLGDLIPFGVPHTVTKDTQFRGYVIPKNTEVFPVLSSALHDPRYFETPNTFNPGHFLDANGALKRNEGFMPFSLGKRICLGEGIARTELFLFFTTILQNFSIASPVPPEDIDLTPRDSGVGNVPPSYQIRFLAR
Format: biochemical, rabbit (Oryctolagus cuniculus)

- decrease (change) in kcat versus wild type: ~ 2.5 fold
- kcat: 0.0517 ± 0.0033 s⁻¹
- kcat/S50: 0.5
- S50 (Hill equation): 6.2 ± 0.7 µM
SMILES: O=c1ccc2nc3ccc(OCc4ccccc4)cc3oc-2c1 [7-BR, 7-benzyloxyresorufin]
